This passage reports TGI results from PubChem BioAssay (NCI).

Common to all, as to test: DTP human tumour cell line panel, 48 h
In assay [1] the test system is OVCAR-5 ovarian.
Assay [2] concerns SN12C renal.
For assay [3], the system named is KM12 colon.
The subject of assay [4] is SR leukemia.
Assay [5] deals with ACHN renal.
Assay [6] relates to HCT-116 colon.
Assay [7] concerns EKVX NSCLC.
In assay [8] the test system is SK-MEL-5 melanoma.
Assay [9] relates to SK-MEL-2 melanoma.
The subject of assay [10] is M14 melanoma.
Assay [11] relates to NCI/ADR-RES ovarian.
Assay [12] concerns MDA-MB-435.
Assay [13] relates to DU-145 prostate.

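Each compound was tested at five concentrations against cells in 96-well plates for 48 hours. TGI denotes the concentration required for complete inhibition of growth.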 Where only a bound is given, the exact number is not on record here.

`N#CN=Nc1cc(Cl)c(N=NC#N)cc1Cl`: the TGI in assay [1], in assay [2], in assay [3], in assay [4], in [5] and in assay [6] was above 100 µM in each case. Further, the TGI in [7], in assay [8], in assay [9] and in assay [10] was above 100 µM throughout.

Regarding `O=C(O)C(Cc1cccs1)NC(=O)C(F)(F)F` (stereo unspecified), the TGI in assay [1], in assay [2], in assay [3], in [6], in [7] and in [8] was above 100 µM each time. Besides, the TGI in assay [11] and in assay [9] was above 100 µM in each case.

As for `COC(=O)c1ccccc1C1CN=NC12Cc1c(C)cc(C)cc1C2=O` (stereo unspecified), the TGI in assay [1], in assay [2], in assay [3], in assay [12], in assay [5] and in [6] was above 100 µM each time. The TGI in assay [7], in assay [8], in assay [13], in [11], in [9] and in assay [10] was above 100 µM each time.

In the case of `O=C1CCC(=O)N1CNc1ccc2c(c1)Sc1ccccc1O2`, the TGI in assay [1] was above 100 µM; in assay [2], 76.1 µM; in [3] it was above 100 µM; in assay [12] it was above 100 µM; in [5], above 100 µM; in assay [6], 45.7 µM. In addition, the TGI in [7] was 75.4 µM; in assay [8], 70.1 µM; in assay [13] it was above 100 µM; in [11], above 100 µM; in assay [9], 40.6 µM; in assay [10] it was 99.2 µM.

As for `CN(CCc1ccc(Br)cc1)CCN1CCCCC1`, the TGI in assay [1] was above 100 µM; in assay [2] it was above 100 µM; in assay [3], 41.9 µM; in [12], 95.3 µM; in assay [5], above 100 µM; in assay [6], above 100 µM. For the same compound, the TGI in assay [7] was above 100 µM; in [8] it was 28.2 µM; in [13], above 100 µM; in assay [11], above 100 µM; in assay [9] it was 64.3 µM; in assay [10], 45.8 µM.

`C#CCCCC(=C)C[C@H](OCc1ccccc1)[C@H]1OC(=O)[C@@H]1C`: the concentration for total growth inhibition (TGI) in assay [1], in assay [2], in [3], in assay [4], in [12] and in assay [5] was above 100 µM in each case. In addition, the TGI in assay [7], in [11], in assay [9] and in [10] was above 100 µM each time.

Turning to `CN(C)CCOc1cc2c(c3ccccc13)-c1ccccc1C2=O`, the TGI in assay [1] was determined as 7.05 µM; in assay [2], 7.43 µM; in [3], 3.03 µM; in [6], 2.93 µM; in [7] it was 18.5 µM; in assay [8] it was 2.96 µM. Further, the TGI in assay [11] is 2.64 µM; in assay [9], 3.44 µM.

Regarding `CC(=O)O[C@H]1C(=O)[C@@]2(C)C(C(OC(=O)c3ccccc3)[C@]3(O)CC(OC(=O)C(O)C(NC(=O)c4ccccc4)c4ccc(F)cc4)C(C)=C1C3(C)C)[C@]1(OC(C)=O)CO[C@@H]1C[C@@H]2O` (stereo partly specified), the TGI in assay [1] is above 7.89 µM; in assay [2] it was above 10 µM; in assay [3], above 5.45 µM; in assay [4], above 3.82 µM; in assay [5], above 10 µM; in assay [6], 0.103 µM. The TGI was above 10 µM in assay [7]; above 3.32 µM in assay [8]; 0.0104 µM in [13]; above 4.04 µM in assay [11]; 3.27 µM in assay [9]; above 7.03 µM in assay [10].

As for `CCCCOC(=O)CN1C(=O)c2ccccc2C1=O`, the TGI in [1], in assay [3], in assay [4], in assay [5], in assay [6] and in [7] was above 100 µM each time. For the same compound, the TGI in assay [8], in [9] and in assay [10] was above 100 µM throughout.

In the case of `COc1cc(CC2CCc3nc(N)nc(N)c3C2)cc(OC)c1OC` (stereo unspecified), the TGI in assay [1] is above 100 µM; in [2], above 100 µM; in [3], above 100 µM; in [4] it was above 100 µM; in assay [12], above 100 µM; in assay [5] it was above 45.6 µM. In addition, the TGI in assay [7] was above 100 µM; in [8] it was 16.6 µM; in assay [9], above 56.6 µM; in assay [10], 28.7 µM.

Turning to `O=C(O)c1ccc(Nc2ccnc3cc(Cl)ccc23)cc1O`, the TGI in assay [1], in assay [2], in [3], in [12], in [5] and in assay [6] was above 100 µM each time. In addition, the TGI in assay [7], in assay [8], in assay [13], in assay [11], in [9] and in assay [10] was above 100 µM each time.

For `Cc1nnc(Nc2ccc(Cl)cc2)o1`, the TGI in [2], in [3], in assay [12], in [5], in assay [6] and in assay [7] was above 10 µM throughout. For the same compound, the concentration for total growth inhibition (TGI) in assay [8], in assay [13], in assay [11], in assay [9] and in assay [10] was above 10 µM each time.

In the case of `CC(N)Cc1cccc(C(F)(F)F)c1` (stereo unspecified), the TGI in assay [1], in [2], in [3], in assay [4], in assay [5] and in assay [6] was above 100 µM in each case. Also, the TGI in [7], in [8], in [9] and in assay [10] was above 100 µM in each case.

The TGI is the concentration giving total growth inhibition. Low values mean greater sensitivity of the cells, high ones lower sensitivity of the cells.
